ChEMBL document CHEMBL1154198, “Chemical genetics of Plasmodium falciparum” (Nature, 2010)

Legend:
Plasmodium falciparum [1] = assay: ST_JUDE: Plasmodium falciparum K1 EC50 (uM) as measured by SYBR green dye; assay type: functional, organism-based
Plasmodium falciparum [2] = assay: ST_JUDE: Plasmodium falciparum 3D7 EC50 (uM) as measured by SYBR green dye; assay type: functional, organism-based

SMILES | EC50 (Plasmodium falciparum [1]) [µM] | EC50 (Plasmodium falciparum [2]) [µM]
COc1ccc(OC)c(NC(=O)CSc2nc(-c3ccccc3Cl)ns2)c1 | 1.42 | 1.25
Cn1c(-c2ccccc2)[n+](C)c2ccccc21 | 8.29 | 11.7
Cc1ccc(CN2CCN(c3nc4c(c(=O)[nH]c(=O)n4C)n3Cc3ccc(C)cc3)CC2)cc1 | > 15 | > 15
COc1ccc(-n2c(N)c(C#N)c3nc4ccccc4nc32)cc1 | 1.61 | 0.487
CCOC(=O)c1cccc(NC(=O)CC2C(=O)N(c3ccc(Cl)cc3)C(=O)N2C2CCCC2)c1 (stereo not given) | 2.7 | 1.42
Cc1ccnc(NC(c2ccc([N+](=O)[O-])cc2)c2ccc3cccnc3c2O)c1 (stereo not given) | 3.7 | 1.81
COC(=O)c1c(S(=O)(=O)N2CCCC2)sc2c1CCN(Cc1c[nH]nc1-c1ccccc1)C2 | > 15 | > 15
CCOC(=O)c1c(CN(C)C)n(-c2ccccc2)c2cc(Br)c(O)cc12 | > 15 | 4.14
COc1cccc(Nc2nc(N3CCN(CCO)CC3)nc3c2cnn3-c2ccccc2)c1 | 4.71 | 3.31
COc1ccc(-c2cn3c(n2)sc2cc(C(=O)NCCCN4CCN(C)CC4)ccc23)cc1 | 6.14 | 2.04
Cn1c(-c2ccc(F)cc2)[n+](C)c2ccccc21 | 3.79 | 1.88
COc1ccc2c(c1)C(=NN=C(N)N)c1cc(OC)ccc1-2 | 1.01 | 0.506
Cc1ccc(Oc2nc(-c3ccncc3)nc3ccccc23)cc1 | 2.26 | 3.48
COc1cccc(OCC(=O)NCc2ccccc2)c1 | > 15 | > 15
Cc1cc(Nc2ccc(C(C)C)cc2)n2ncnc2n1 | 0.961 | 0.502
Cc1ccc(Cl)cc1NC(=O)c1c(-c2c(Cl)cccc2Cl)noc1C | 8.12 | 0.481
O=C(C1CCCCC1)N(Cc1cccnc1)c1nc2ccc(F)cc2s1 | 3.41 | > 15
CCOC(=O)C1=C(C)N=c2s/c(=C\c3cc(OC)ccc3O)c(=O)n2C1c1ccccc1 (stereo not given) | > 15 | > 15

SMILES | EC50 (Plasmodium falciparum [1]) [µM] | EC50 (Plasmodium falciparum [2]) [µM]
CCOC(=O)C1=C(C)N=c2s/c(=C\c3cc(Cl)ccc3O)c(=O)n2C1c1ccc(OC)cc1 (stereo not given) | > 15 | > 15
CCOc1ccc(NC(=O)c2sc3nc4n(c(=O)c3c2C)CCC4)cc1 | > 15 | > 15
O=C(Nc1nnc(-c2ccc3c(c2)CCCC3)o1)c1ccc(F)cc1 | > 15 | > 15
CN(C)CCNC(=O)c1[nH]c2ccccc2c1Sc1ccc(Cl)cc1 | 3.5 | 4.53
Cc1cc(O)nc(-n2nc(C)cc2NC(=O)c2cc(C(F)(F)F)cc(C(F)(F)F)c2)n1 | > 15 | > 15
CCC1CCCCN1CC(O)COCCC12CC3CC(CC(C3)C1)C2 (stereo not given) | 2.68 | 7.2
Oc1ccc(I)cc1/C=C/c1cc(O)c2ccccc2n1 | 5.34 | > 15
CC1CCN(C(=O)c2cc(COc3ccc(F)cc3F)on2)CC1 | > 15 | > 15
Cc1ccc(/C(O)=C/C=N/c2cc([N+](=O)[O-])ccc2O)cc1 | 1.69 | > 15
CC[n+]1cccc2cc(OC)ccc21 | > 15 | > 15
COc1ccc2ncc(C(=O)c3ccccc3)c(N3CCN(C)CC3)c2c1 | > 15 | > 15
CC(=O)NC(c1ccccc1)c1cc(Cl)c2cccnc2c1O (stereo not given) | > 15 | > 15
CCc1ccc(CN2CCC(n3nccc3NC(=O)Nc3ccccc3C)CC2)cc1 | > 15 | 6.75
O=C1CC(C(=O)N2CCC(c3nc(-c4cccnc4)ncc3-c3ccccc3)CC2)c2ccccc21 (stereo not given) | 4.09 | 2.73
Oc1c(Cl)cc(Cl)cc1CN1CCN(c2ccccc2F)CC1 | 0.861 | 1.85
CCCCn1nnnc1NCc1cc(Cl)c(OC)c(OC)c1 | > 15 | 5.86
O=C(c1cccc(Cl)c1)N1CCN(c2ccc([N+](=O)[O-])c(NC3CC3)c2)CC1 | 3.68 | 3.76
